Experimental data published in patent US20140296484A1, “Cyclin Based Inhibitors of CDK2 and CDK4” (University of South Carolina, priority 2013, published 2014).
Where two headings read alike, the source gives them in different places. Where a SMILES comes first, the peptide text is derived from it. [ ]: non-standard residue; d: D form. The star is where a group is joined. Ala(cPent) = N[C@@H](CC1CCCC1)C(=O)O; X2 = O=C(c1ccc(-c2ccc(Cl)cc2)o1)*; 3Pal = N[C@@H](Cc1cccnc1)C(=O)O; 2Thi = N[C@@H](Cc1cccs1)C(=O)O; Picolinoyl = O=C(c1ccccn1)*; Bz = O=C(c1ccccc1)*

Assays:
[1] = target: CDK2/cyclin A (Homo sapiens, UniProt P20248); assay: Fluorescence polarization (FP) competitive binding assay
Procedure: (§1) Once the compounds were characterized, their binding affinities were tested by FP assay.

[2] = as above; details: Table 20; read-out: CDK2/Cyclin A IC050
Procedure: (§2) In order to assess the contribution of the PLA H-bond acceptor, analogous compounds were made in each series and activities for the 4-chloro and 3,5-dichloro analog were evaluated in each context.
(§3) Several additional analogs were synthesized in addition to the 3,5 dichloro and 4-chlorophenyl analogs. In addition to determining their inhibition of CDK2/cyclin A, the availability of the CDK4/cyclin D1 binding assay was exploited to develop SAR for both kinases.
as §1

[3] = target: T1, CDK4/Cyclin D1 (Homo sapiens, UniProt P24385); assay: as above
Procedure: as §2, §3, §1

[4] = target: CDK2/Cyclin A2 (Homo sapiens, UniProt P20248); assay: In vitro kinase assay, 32P filter capture with GST-Rb substrate; format: biochemical
[5] = target: T1, CDK4/Cyclin D1; assay: as above; format: biochemical; details: kinase assay
[6] = tested on: 36 other protein kinases; details: cited from earlier work
[7] = tested on: retinoblastoma (Rb)-positive tumor cells; details: cited from earlier work
[8] = tested on: Colo-205 human colon carcinoma xenografts; details: oral administration to mice bearing Colo-205 xenografts; cited from earlier work
[9] = target: CDK2/E (Homo sapiens, UniProt P24864); assay: In vitro kinase assay
[10] = competitive binding (FP) assay, read-out: CDK2/Cyclin A IC50
[11] = Table 15, read-out: CDK2/Cyclin D1 IC50

T1 sequence (P24385 whole entry): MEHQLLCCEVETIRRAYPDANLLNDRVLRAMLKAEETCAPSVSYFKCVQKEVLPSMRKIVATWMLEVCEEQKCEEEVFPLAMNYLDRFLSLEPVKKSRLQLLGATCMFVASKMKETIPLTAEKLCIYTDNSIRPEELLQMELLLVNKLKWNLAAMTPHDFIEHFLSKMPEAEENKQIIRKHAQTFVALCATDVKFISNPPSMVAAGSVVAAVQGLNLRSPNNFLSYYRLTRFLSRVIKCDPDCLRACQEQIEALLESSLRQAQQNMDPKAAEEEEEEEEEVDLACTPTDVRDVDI
T1 sequence (P11802 whole entry partner): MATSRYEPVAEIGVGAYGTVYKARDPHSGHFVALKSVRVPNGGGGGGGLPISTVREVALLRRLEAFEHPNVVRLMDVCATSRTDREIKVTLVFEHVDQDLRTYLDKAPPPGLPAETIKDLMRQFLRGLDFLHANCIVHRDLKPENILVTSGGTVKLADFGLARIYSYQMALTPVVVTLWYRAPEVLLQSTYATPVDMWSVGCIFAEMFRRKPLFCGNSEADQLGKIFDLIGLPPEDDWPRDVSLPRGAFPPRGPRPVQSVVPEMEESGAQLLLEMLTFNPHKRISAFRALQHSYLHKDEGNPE

`COc1ccccc1CC(CC(C)C)NC(=O)C(CCCCNC(=N)N)NC(=O)c1nc(C)n(-c2cc(Cl)cc(Cl)c2)n1` (stereo not drawn) [compound 5982] gave an IC50 [1, 10] greater than 180 µM and an IC50 [2] greater than 180 µM.
With `Cc1nc(C(=O)N[C@@H](CCCNC(=N)N)C(=O)NC(CC(=O)NCCc2ccccc2)CC(C)C)nn1-c1cc(Cl)cc(Cl)c1` (stereo partly drawn) [compound 6002] the IC50 [1, 10] was greater than 180 µM and the IC50 [3, 11] was greater than 180 µM.
For `CC[C@H](C)[C@H](NC(=O)[C@H](CC(C)C)NC(=O)[C@H](CCCNC(=N)N)NC(=O)[C@H](CCCNC(=N)N)NC(=O)[C@H](CCCCN)NC(=O)[C@H](C)NC(=O)[C@@H](N)Cc1c[nH]cn1)C(=O)N[C@@H](CC1CCCC1)C(N)=O` [HAKRRLIX5] (H-HAKRRLI[Ala(cPent)]-NH2), the IC50 [4] was 20 µM and the IC50 [5] was 90 µM.
With `Cc1nc(C(=O)N[C@@H](CCCNC(=N)N)C(=O)NC(CC(C)C)C(=O)NCCCc2ccccc2)nn1-c1cc(Cl)cc(Cl)c1` (stereo partly drawn) [SCCP 6004] the IC50 [1, 10] was 57.7 µM.
Compound `CC[C@H](C)[C@H](NC(=O)[C@H](CC(C)C)NC(=O)[C@H](CCCNC(=N)N)NC(=O)[C@H](CCCNC(=N)N)NC(=O)[C@H](CCCCN)NC(=O)[C@H](C)NC(=O)[C@@H](N)Cc1c[nH]cn1)C(=O)N[C@@H](Cc1cccs1)C(N)=O` [HAKRRLIX2] (H-HAKRRLI[2Thi]-NH2) has an IC50 [4] of 3.6 µM.
In the case of `CCN(CCCc1ccccc1)C(=O)C(CC(C)C)NC(=O)[C@H](CCCNC(=N)N)NC(=O)c1nc(C)n(-c2cc(Cl)cc(Cl)c2)n1` (stereo partly drawn) [compound 6005], the IC50 [1, 10] is reported as greater than 180 µM and the IC50 [3, 11] is reported as greater than 180 µM.
Compound `CC(C)C[C@H](NC(=O)[C@H](CCCNC(=N)N)NC(=O)[C@H](CCCNC(=N)N)NC(=O)[C@H](CCCCN)NC(=O)[C@H](C)NC(=O)[C@@H]1CCCN1)C(=O)N[C@@H](Cc1ccccc1)C(=O)NCC(N)=O` has an IC50 [5] of 6.7 µM.
With `COc1ccccc1C(CC(C)C)NC(=O)C(CCCCNC(=N)N)NC(=O)c1nc(C)n(-c2cc(Cl)cc(Cl)c2)n1` (stereo not drawn) [compound 5985] the IC50 [1, 10] was greater than 180 µM and the IC50 [2] was greater than 180 µM.
In the case of H-HAKTRLIF-NH2, the IC50 [4] is reported as 50 µM and the IC50 [5] is reported as 25 µM.
For `CC(=O)c1c(C)c2cnc(Nc3ccc(N4CCNCC4)cn3)nc2n(C2CCCC2)c1=O` [PD0332991], the “activity against 36 other protein kinases” value [6] is listed as “no activity”, the antiproliferative activity [7] is listed as “potent antiproliferative agent” and the tumor response [8] is listed as “marked tumor regression”.
H-SAKRNLFGM-NH2 gave an IC50 [5] of 146 µM.
For `CC[C@H](C)[C@H](NC(=O)[C@H](CC(C)C)NC(=O)[C@H](CCCNC(=N)N)NC(=O)c1ccc(-c2ccc(Cl)cc2)o1)C(=O)N[C@@H](Cc1ccccc1)C(=O)O` [SCCP 5770] (X2-RLIF-OH), the “fold less potent relative to the triazole N capping group” value ([3]; CDK4/cyclin D1 context) was 25 fold.
`CC[C@H](C)[C@H](NC(=O)[C@H](CC(C)C)NC(=O)[C@H](CCCNC(=N)N)NC(=O)c1ccccc1)C(=O)N[C@@H](Cc1ccccc1)C(N)=O` [compound 5857] (Bz-RLIF-NH2) showed an IC50 [1] greater than 100 µM and an IC50 [3] of 100 to 180 µM.
With `CCN(CCc1ccccc1)C(=O)CC(CC(C)C)NC(=O)[C@H](CCCNC(=N)N)NC(=O)c1nc(C)n(-c2cc(Cl)cc(Cl)c2)n1` (stereo partly drawn) [compound 6003] the IC50 [3, 11] was greater than 180 µM.
In the case of `CC[C@H](C)[C@H](NC(=O)[C@H](CC(C)C)NC(=O)[C@H](CCCNC(=N)N)NC(=O)[C@H](CCCNC(=N)N)NC(=O)[C@H](CCCCN)NC(=O)[C@H](C)NC(=O)[C@@H](N)Cc1c[nH]cn1)C(=O)N[C@@H](Cc1ccco1)C(N)=O` [HAKRRLIX1], the IC50 [4] is reported as 6.1 µM and the IC50 [9] is reported as 1.3 µM.
With `Cc1nc(C(=O)N[C@@H](CCCNC(=N)N)C(=O)NC(CC(=O)NCc2ccccc2)CC(C)C)nn1-c1cc(Cl)cc(Cl)c1` (stereo partly drawn) [compound 6000] the IC50 [1, 10] was greater than 180 µM and the IC50 [3, 11] was greater than 180 µM.
Work on `CC[C@H](C)[C@H](NC(=O)[C@H](CC(C)C)NC(=O)[C@H](CCCNC(=N)N)NC(=O)c1ccccn1)C(=O)N[C@@H](Cc1ccccc1)C(=O)O` [525 (RLIF form)] (Picolinoyl-RLIF-OH) yielded an IC50 ([1]; Table 11, value tagged (LIF), read-out: IC50 CDK2/A2 (LIF)) of 94.3 ± 14.9 µM, an IC50 ([3]; Table 11, value tagged (LIF) (0321), read-out: IC50 CDK4/D1 (LIF) (0321)) of 49 µM and an IC50 ([3]; Table 11, value tagged (LIF), read-out: IC50 CDK4/D1 (LIF)) of 64 µM.
In the case of `CC[C@H](C)[C@H](NC(=O)[C@H](CC(C)C)NC(=O)[C@H](CCCNC(=N)N)NC(=O)[C@H](CCCNC(=N)N)NC(=O)[C@H](CCCCN)NC(=O)[C@H](C)NC(=O)[C@@H](N)Cc1c[nH]cn1)C(=O)N[C@@H](Cc1cccnc1)C(N)=O` [HAKRRLIX7] (H-HAKRRLI[3Pal]-NH2), the IC50 [4] is reported as 29 µM.
Compound `Cc1nc(C(=O)NC(CCCCNC(=N)N)C(=O)NC(CC(C)C)c2ccccc2OCC(C)C)nn1-c1cc(Cl)cc(Cl)c1` (stereo not drawn) [compound 5978] has an IC50 [1, 10] greater than 180 µM and an IC50 [2] greater than 180 µM.
